# Article PMC6934184, “Selective DNA-PKcs inhibition extends the therapeutic index of localized radiotherapy and chemotherapy” (The Journal of Clinical Investigation, 2019)
# Target: T1, ABL1 Q252H (Homo sapiens, UniProt P00519, Q252H)
# T1 construct: purchased Thermo Fisher Scientific (Life Technologies) SelectScreen
# Experiment: SelectScreen LanthaScreen
# Format: binding
# Conditions: read-out: % displacement
# In short: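 SelectScreen broad panel; activity (Z'LYTE, Adapta) plus binding formats. ATP: Km app for CSF1R Z'LYTE; 10 for CAMK1 Adapta. Readout = % per kinase.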
smiles,measurement,value
CN(C(=O)CN1CCOCC1)c1ccc2sc3c(-c4cccc5c(=O)cc(N6CC7CCC(C6)O7)oc45)cccc3c2c1 [NU5455],inhibition at 1 µM,1.1%
